Experimental findings from patent publication US9428815B2, “HIV-1 reverse transcriptase codon deletion and its use in the management and treatment of HIV infections” (Emory University, priority 2007, dated 2016) are described below.

In experiment [1] the test system is HIVs68Δ-23 (S68del virus isolated at week 23). Nature of the experiment: 3H-TTP RT incorporation assay, drug susceptibility of in vitro-selected S68del virus in human PBM cells. It is filed as cell-based, HIV-1. The conditions noted are these: for EC50 / EC90: HIVs68Δ-23 in human PBM cells, averages of 2-6 independent experiments; for FI EC50 (fold increase in 50% effective concentration) / FI EC90 (fold increase in 90% effective concentration): HIVs68Δ-23 relative to HIVLAI; for resistance of S68del (in words): S68del mutant HIV, summary statement; for HIVs68Δ-23 susceptibility (in words): NNRTI / PI. On the procedure: Peripheral blood mononuclear (PBM) cells were separated by ficoll-hypaque (Histopaque 1077: Sigma) density gradient centrifugation from Buffy coats obtained from the American Red Cross (Atlanta, Ga.). Buffy coats were derived from healthy seronegative donors. Cells were activated with 3 μg/ml phytohaemagglutinin A (Sigma-Aldrich, St. Louis, Mo.) in 500 ml of RPMI-1640 (Mediatech Inc., Herndon, Va.) containing 100 ml heat-inactivated fetal bovine serum (Hyclone), 83.3 IU/ml penicillin, 83.3 μg/ml streptomycin, 1.6 mM L-glutamine (Mediatech Inc., Herndon, Va.), for 2-3 days prior to use.
Drug resistance of the S68del virus isolated at week 23 (HIVs68Δ-23) was measured with the 3H-TTP RT incorporation assay in human PBM cells (Schinazi, et al., Antimicrob. Agents Chemother. 1990; 34:1061-1067; Stuyver et al., Antimicrob. Agents Chemother. 2002; 46:3854-60). HIVs68Δ-23 was population sequenced to ensure the dominant population was the deletion at codon 68. […] The susceptibility of the S68del virus to several nucleoside reverse transcriptase inhibitors (NRTI), a non-nucleoside reverse transcriptase inhibitor (NNRTI) and a protease inhibitor (PI) was tested. Fold increases were measured relative to HIVLAI (Table 4, FIGS. 2 and 3). Data are the averages of 2-6 independent experiments.

For a further experiment, the system named is pNL4-3. Nature of the experiment: Quantitative HIV-1 real-time PCR assay in human PBM cells, pNL4-3 virus. It is filed as cell-based. The note with it: Human immunodeficiency virus 1, PBMC, pNL4-3 in human PBM cells. From the text:
The real-time PCR assay for quantifying virus levels in PBM cells serves as a more sensitive method for measuring drug resistance of S68del HIV-1 than other standard methods. SK38 Primer: ATAATCCACCTATCCCAGTAGGAGAAAT (SEQ ID NO: 1) and SK39 Primer: TTTGGTCCTTGTCTTATGTCCAGAATGC (SEQ ID NO: 2) were used in the real-time PCR assay. The presence of amplified product was detected with the SK19 probe: ATCCTGGGATTAAATAAAATAGTAAGAATGTATAG (SEQ ID NO: 3). […] Four concentrations were tested in duplicate for each data point.
A general note: Quantitative PCR measures a nucleic acid by following its amplification.

Setting [2] is: Human immunodeficiency virus 1, PBMC.

For the molecule `Nc1nc2c(ncn2C2COC(CO)O2)c(=O)[nH]1` (single isomer, unassigned; (-)) [DXG, (−)-9-(beta-D-dioxolane)guanine], in experiment [1], the concentration giving a half-maximal response (EC50) – broadly, the concentration that produces a half-maximal response – was 1600 nM; the 90% effect level (EC90) was put at 5100 nM; the “FI EC50 (fold increase in 50% effective concentration)” value worked out at 6.2; the “FI EC90 (fold increase in 90% effective concentration)” value is recorded as 3.7.
Turning to `Nc1ccn([C@@H]2CS[C@H](CO)O2)c(=O)n1` [3TC, (−)-cis-2-hydroxymethyl-5-(cytosin-1-yl)-1,3-oxathiolane], in experiment [1] (setting [2]), the concentration for a half-maximal effect (EC50) is 880 nM and the 90% effect level (EC90) was put at 3300 nM.
`Cc1cn([C@H]2C[C@H](N=[N+]=[N-])[C@@H](CO)O2)c(=O)[nH]c1=O` [AZT, 3′-azido-3′-deoxythymidine]: the EC50 in the experiment with pNL4-3 is 130 nM; in experiment [1] (setting [2]), 3.8 nM. Also, the 90% effect concentration (EC90) (usually the concentration needed for an effect of 90%) was 330 nM in the experiment on pNL4-3 and 14 nM in experiment [1] (setting [2]). Besides, the “resistance of S68del (in words)” value in experiment [1] was “does not show increased resistance”.
In the case of `Nc1nc(NC2CC2)c2ncn([C@H]3C=C[C@@H](CO)C3)c2n1.O=C(O)CCC(=O)O` [Abacavir, (1S,4R)-4-[2-amino-6-(cyclopropyl-amino)-9H-purin-9-yl]-2-cyclopentene-1-methanol succinate], in experiment [1] (setting [2]), the EC50 stood at 3900 nM and the EC90 was determined as 11300 nM.
For the molecule `Cc1cn([C@H]2C=C[C@@H](CO)O2)c(=O)[nH]c1=O` [D4T, 2′,3′-dideoxy-2′,3′-didehydrothymidine], in experiment [1] (setting [2]), the midpoint of the response, the EC50, lay at 410 nM and it took 1500 nM to reach the 90% level (EC90). In addition, the “resistance of S68del (in words)” value in experiment [1] is on record as “does not show increased resistance”.
With `Nc1nc(N)c2ncn([C@H]3CO[C@@H](CO)O3)c2n1` [DAPD, (−)-beta-D-2,6-diaminopurine dioxolane], in experiment [1], the “FI EC50 (fold increase in 50% effective concentration)” value came to 38.2 and the “FI EC90 (fold increase in 90% effective concentration)” value amounted to 32.4. In experiment [1] (setting [2]), the EC50 came to 7900 nM and the EC90 came to 34500 nM.
In the case of `Nc1ccn([C@H]2CC[C@@H](CO)O2)c(=O)n1` [DDC, 2′,3′-dideoxycytidine], in experiment [1] (setting [2]), the half-maximal effective concentration (EC50) was found to be 220 nM and the EC90 was 930 nM. For the same molecule, in experiment [1], the “resistance of S68del (in words)” value was “does not show increased resistance”.
On the same counts, the results for `OC[C@@H]1CC[C@H](n2cnc3c(O)ncnc32)O1` [DDI, 2′,3′-dideoxyinosine] are 630 nM, 4500 nM and “does not show increased resistance”.
In experiment [1] (setting [2]), `Cc1cccc(C)c1OCC(=O)N[C@@H](Cc1ccccc1)[C@@H](O)C[C@H](Cc1ccccc1)NC(=O)[C@H](C(C)C)N1CCCNC1=O` [Lopinavir] gave an EC50 of 6 nM and a concentration for an effect of 90% (EC90) of 19 nM. The “HIVs68Δ-23 susceptibility (in words)” value in experiment [1] is “not significantly changed”.
In experiment [1] (setting [2]), `O=C1Nc2ccc(Cl)cc2[C@@](C#CC2CC2)(C(F)(F)F)O1` [Sustiva, (S)-6-chloro-4-cyclopropylethynyl-4-trifluoromethyl-1,4-dihydro-2H-3,1-b-enzoxazin-2-one] showed a concentration giving a half-maximal response (EC50) of 0.39 nM and an EC90 of 3.5 nM. Moreover, the “HIVs68Δ-23 susceptibility (in words)” value in experiment [1] is on record as “not significantly changed”.
Consider `CC(C)OC(=O)OCOP(=O)(CO[C@H](C)Cn1cnc2c(N)ncnc21)OCOC(=O)OC(C)C.O=C(O)/C=C/C(=O)O` [TDF, 9-[(R)-2-[[bis[[(isopropoxycarbonyl)oxy]methoxy]phosphinyl]methoxy]propyl]adenine fumarate], for which, in experiment [1] (setting [2]), the 50% effective concentration (EC50) worked out at 430 nM and the EC90 came to 1600 nM.
